This is an account of results in ChEMBL document CHEMBL4118098, “Discovery of DS28120313 as a potent orally active hepcidin production inhibitor: Design and optimization of novel 4,6-disubstituted indazole derivatives” (Bioorg Med Chem Lett, 2017).

The target of assay [1] is Calcium/calmodulin-dependent protein kinase type II subunit gamma (Homo sapiens) (UniProt Q13555). Description: Inhibition of CaMK2-gamma (unknown origin) at 0.19 uM relative to control.
Assay [2] concerns the target RAF proto-oncogene serine/threonine-protein kinase (Homo sapiens) (UniProt P04049). Description: Inhibition of c-Raf (unknown origin) at 0.19 uM relative to control.
Assay [3] addresses Aurora kinase A (Homo sapiens) (UniProt O14965). Description: Inhibition of AurA (unknown origin) at 0.19 uM relative to control.
Assay [4] has as its target Calcium/calmodulin-dependent protein kinase type 1D (Homo sapiens) (UniProt Q8IU85). Briefly: Inhibition of CamK1d (unknown origin) at 0.19 uM relative to control.
Assay [5] has as its system Proto-oncogene tyrosine-protein kinase receptor Ret (Homo sapiens), P07949 [V804L]. Briefly: Inhibition of Ret V804L mutant (unknown origin) at 0.19 uM relative to control.
Assay [6] concerns the target Fibroblast growth factor receptor 1 (Homo sapiens) (UniProt P11362). Description: Inhibition of FGFR1 (unknown origin) at 0.19 uM relative to control.
The target in assay [7] is Tyrosine-protein kinase BTK (Homo sapiens) (UniProt Q06187). Briefly: Inhibition of BTK (unknown origin) at 0.19 uM relative to control.
Assay [8] has as its target Tyrosine-protein kinase Srms (Homo sapiens) (UniProt Q9H3Y6). Briefly: Inhibition of SRM (SRMS) (unknown origin) at 0.19 uM relative to control.
Assay [9] has as its target Serine/threonine-protein kinase PAK 3 (Homo sapiens) (UniProt O75914). Briefly: Inhibition of PAK3 (unknown origin) at 0.19 uM relative to control.
In assay [10] the target is Ephrin type-B receptor 2 (Homo sapiens) (UniProt P29323). Description: Inhibition of EPHB2 (unknown origin) at 0.19 uM relative to control.
Assay [11] addresses Death-associated protein kinase 3 (Homo sapiens) (UniProt O43293). Description: Inhibition of ZIPK (unknown origin) at 0.19 uM relative to control.
Assay [12] has as its target Ribosomal protein S6 kinase alpha-3 (Homo sapiens) (UniProt P51812). Briefly: Inhibition of RSK2 (unknown origin) at 0.19 uM relative to control.
The target of assay [13] is Serine/threonine-protein kinase MARK1 (Homo sapiens) (UniProt Q9P0L2). Description: Inhibition of MARK1 (unknown origin) at 0.19 uM relative to control.
The test system of assay [14] is Tyrosine-protein kinase ABL1 (Homo sapiens), P00519 [H396P]. Description: Inhibition of Abl H396P mutant (unknown origin) at 0.19 uM relative to control.
Assay [15] deals with Serine/threonine-protein kinase 10 (Homo sapiens) (UniProt O94804). Description: Inhibition of LOK (unknown origin) at 0.19 uM relative to control.
In assay [16] the target is Mast/stem cell growth factor receptor Kit (Homo sapiens) (UniProt P10721). Briefly: Inhibition of KIT (unknown origin) at 0.164 uM relative to control.
Assay [17] deals with Ephrin type-A receptor 2 (Homo sapiens) (UniProt P29317). Briefly: Inhibition of EPHA2 (unknown origin) at 0.164 uM relative to control.
Assay [18] concerns the target Phosphorylase b kinase gamma catalytic chain, skeletal muscle/heart isoform (Homo sapiens) (UniProt Q16816). Briefly: Inhibition of PhKg1 (unknown origin) at 0.164 uM relative to control.
Assay [19] concerns Proto-oncogene tyrosine-protein kinase receptor Ret (Homo sapiens), P07949 [Y791F]. Description: Inhibition of RET Y791F mutant (unknown origin) at 0.164 uM relative to control.
Assay [20] concerns the target MAP/microtubule affinity-regulating kinase 4 (Homo sapiens) (UniProt Q96L34). Description: Inhibition of MARK4 (unknown origin) at 0.164 uM relative to control.
Assay [21] has as its target Protein kinase C beta type (Homo sapiens) (UniProt P05771). Description: Inhibition of PKC-beta2 (unknown origin) at 0.164 uM relative to control.
Assay [22] deals with Leucine-rich repeat serine/threonine-protein kinase 2 (Homo sapiens), Q5S007 [G2019S]. Description: Inhibition of LRRK2 G2019S mutant (unknown origin) at 0.164 uM relative to control.
For assay [23], the target named is Homeodomain-interacting protein kinase 4 (Homo sapiens) (UniProt Q8NE63). Description: Inhibition of HIPK4 (unknown origin) at 0.164 uM relative to control.
The target in assay [24] is Tyrosine-protein kinase receptor TYRO3 (Homo sapiens) (UniProt Q06418). Briefly: Inhibition of TYRO3 (unknown origin) at 0.164 uM relative to control.
In assay [25] the test system is Hepatocyte growth factor receptor (Homo sapiens), P08581 [M1250T]. Briefly: Inhibition of MET M1250T mutant (unknown origin) at 0.164 uM relative to control.
The target of assay [26] is Ribosomal protein S6 kinase alpha-1 (Homo sapiens) (UniProt Q15418). Description: Inhibition of RSK1 (unknown origin) at 0.164 uM relative to control.
The target of assay [27] is Ephrin type-A receptor 4 (Homo sapiens) (UniProt P54764). Briefly: Inhibition of EPHA4 (unknown origin) at 0.164 uM relative to control.
The target in assay [28] is NT-3 growth factor receptor (Homo sapiens) (UniProt Q16288). Description: Inhibition of TRKC (unknown origin) at 0.164 uM relative to control.
The target of assay [29] is Ephrin type-B receptor 4 (Homo sapiens) (UniProt P54760). Description: Inhibition of EPHB4 (unknown origin) at 0.164 uM relative to control.
Assay [30] addresses T1, cGMP-dependent protein kinase 1 (Homo sapiens) (UniProt Q13976).
T1 sequence (whole entry): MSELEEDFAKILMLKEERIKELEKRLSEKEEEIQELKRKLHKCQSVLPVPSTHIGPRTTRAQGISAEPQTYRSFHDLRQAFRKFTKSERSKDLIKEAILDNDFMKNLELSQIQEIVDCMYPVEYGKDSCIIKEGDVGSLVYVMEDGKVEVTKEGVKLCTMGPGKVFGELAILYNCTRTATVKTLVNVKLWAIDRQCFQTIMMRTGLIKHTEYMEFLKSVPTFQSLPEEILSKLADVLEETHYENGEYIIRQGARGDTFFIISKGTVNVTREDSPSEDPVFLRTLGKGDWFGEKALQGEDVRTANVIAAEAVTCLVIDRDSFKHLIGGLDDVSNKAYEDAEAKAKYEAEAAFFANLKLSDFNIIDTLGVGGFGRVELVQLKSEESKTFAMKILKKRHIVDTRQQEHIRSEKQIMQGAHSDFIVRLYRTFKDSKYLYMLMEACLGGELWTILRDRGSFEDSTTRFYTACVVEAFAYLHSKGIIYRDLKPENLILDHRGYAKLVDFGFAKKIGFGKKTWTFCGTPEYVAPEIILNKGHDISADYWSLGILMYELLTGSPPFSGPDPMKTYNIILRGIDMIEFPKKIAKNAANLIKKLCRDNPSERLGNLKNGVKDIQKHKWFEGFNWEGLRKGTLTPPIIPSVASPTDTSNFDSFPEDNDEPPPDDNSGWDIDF
Description: Inhibition of PKG-alpha (unknown origin) at 0.45 uM relative to control.

Molecules are shown by their SMILES.

With `Cc1[nH]nc(C2CC2)c1-c1ccc2c(-c3ccc(N4CCN(C)CC4)nc3)n[nH]c2c1`, the inhibition in assay [1] was -4%; in assay [2], 4.7%; in assay [3] it was 3.3%; in assay [4] it was -1.7%; in assay [5] it was 7%; in [6], 10.3%. Also, the inhibition in assay [7] is -1.7%; in assay [8], 3.7%; in [9] it was -0.7%; in assay [10], 4%; in assay [11] it was -2%; in [12], -5.7%. The inhibition in assay [13] was -5.3%; in [14] it was 86.3%; in assay [15], 4.3%.

In the case of `COC(=O)Nc1cc(-c2c(C3CC3)n[nH]c2C)cc2[nH]ncc12`, the inhibition was 4% in assay [16]; -2.3% in assay [17]; 1% in [18]; 6% in assay [19]; 7.3% in [20]; 5.7% in [21]. For the same compound, the inhibition in assay [22] was 2.3%; in [23], -4%; in [24], 7.7%; in [25], -0.3%; in assay [26], 17%; in assay [27], -2.3%. The inhibition in assay [28] is 7.3%; in [29], -2.3%.

Regarding `Cc1n[nH]c(C)c1-c1ccc2c(NC(=O)c3ccc(N4CCN(C)CC4)cc3)n[nH]c2c1`, in [30], the inhibition is -1.7%.
